Assay results from the supplement of paper PMC3974653.
Where a name gives a salt, the structure may show the parent alone.

Each compound was assayed on MTT (mouse pheochromocytoma) (assay: IC50 of cell viability (ATP content)). Conditions: (24 or 48 h).
How it was run: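 CellTiter-Glo ATP luminescence, read after 15 minutes, was used to assess MTT mouse pheochromocytoma cells treated for 24 or 48 hrs with library compounds (final 0.5 nM to 46 µM, 8 concentrations). The cells had been plated at 5 µl of 200,000 cells/ml per well in white 1536-well plates in DMEM with 5% FBS and 1% horse serum and cultured overnight at 37°C, 5% CO2. Normalisation set positive-control wells to 100% and DMSO wells to 0%. The IC50 was then determined by four-parameter logistic fitting.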

| SMILES | IC50 of cell viability |
| --- | --- |
| Nc1ccc([As](=O)(O)O)cc1 [Arsanilic acid] | > 46 µM |
| Clc1cccc(C(c2ccc3nc[nH]c3c2)n2ccnc2)c1 (stereo unspecified) [LIAROZOLE] | > 46 µM |
| CCC1OC(=O)C(C)[C@@H](O[C@H]2C[C@@](C)(OC)C(O)C(C)O2)C(C)[C@@H](O[C@@H]2OC(C)CC(N(C)C)C2O)[C@@](C)(OC)CC(C)C(=O)[C@@H](C)C(O)[C@]1(C)O (stereo partly specified) [CLARITHROMYCIN] | > 46 µM |
| CC(N)C(=O)NCC(=O)NC1CSSCC(C(=O)O)NC(=O)C(CO)NC(=O)C(C(C)O)NC(=O)C(Cc2ccccc2)NC(=O)C(C(C)O)NC(=O)C(CCCCN)NC(=O)C(Cc2c[nH]c3ccccc23)NC(=O)C(Cc2ccccc2)NC(=O)C(Cc2ccccc2)NC(=O)C(CC(N)=O)NC(=O)C(CCCCN)NC1=O (stereo unspecified) [SOMATOSTATIN] | > 46 µM |
| CCN(CC)Cc1nccn1-c1ccc([N+](=O)[O-])cc1C(=O)c1ccccc1Cl [Nizofenone] | > 46 µM |
| C=C1CCC(O)C/C1=C/C=C1\CCC[C@]2(C)[C@@H]([C@H](C)/C=C/[C@H](C)C(C)C)CC[C@@H]12 (stereo partly specified) [ERGOCALCIFEROL] | > 46 µM |
| CO[C@]12C[C@@H](COC(=O)c3cncc(Br)c3)CN(C)[C@@H]1Cc1cn(C)c3cccc2c13 [NICERGOLINE] | > 46 µM |
| C=CC1C[N@]2CCC1CC2C(OC(=O)OCC)c1ccnc2ccc(OC)cc12 (stereo partly specified) [QUININE ETHYL CARBONATE] | > 46 µM |
| O=C(CCCN1CCC2(CC1)C(=O)NCN2c1ccccc1)c1ccc(F)cc1 [SPIPERONE] | > 46 µM |
| CC(C)c1cccc(C(C)C)c1O [PROPOFOL] | > 46 µM |
| CC1O[C@@H](CC(O)[C@H]1O[C@H]2CC(O)[C@@H](O[C@H]3CC(OC(C)=O)[C@H](O[C@H]4OC(CO)C(O)C(O)C4O)[C@@H](C)O3)C(C)O2)OC5CC[C@]6(C)C(CCC7C6CC(O)[C@@]8(C)C(CC[C@@]78O)\C9=C\C(=O)OC9)C5 (stereo partly specified) [LANATOSIDE C] | > 46 µM |
| OC[C@@H]1O[C@@](CO)(OC2O[C@H](CO)[C@@H](O)[C@H](O)[C@@H]2O)[C@@H](O)[C@@H]1O (stereo partly specified) [Sucralox] | > 46 µM |

The remaining lines, values ahead:

| IC50 of cell viability | SMILES |
| --- | --- |
| > 46 µM | CCN1\C=C(\C(O)=O)C(=O)C2=C1C=C(N3CCNCC3)C(=C2)F [Norfloxacin] |
| > 46 µM | CC(=O)SC[C@@H](Cc1ccccc1)C(=O)NCC(=O)OCc1ccccc1 [Racecadotril] |
| > 46 µM | CO/N=C(\C(=O)N[C@@H]1C(=O)N2C(C(=O)[O-])=C(C[n+]3cccc4c3CCCC4)CS[C@H]12)c1csc(N)n1 [CEFQUINOME sulfate] |
| > 46 µM | OC[C@@H](O)C(O[C@@H]1O[C@@H](CO)[C@H](O)[C@H](O)[C@H]1O)[C@H](O)[C@@H](O)CO (stereo partly specified) [Lactitol] |
| > 46 µM | O=C(CCC1CCN(Cc2ccccc2)CC1)c1ccc2c(c1)NCCCC2 [ZANAPEZIL FUMARATE] |
| > 46 µM | CCOC(=O)[C@H](CCc1ccccc1)NC(C)C(=O)N1CC2(CC1C(=O)O)SCCS2 (stereo partly specified) [Spirapril] |
| > 46 µM | c1ccc2c(c1)Sc1ccccc1N2CCN1CCCC1 [PARATHIAZINUM] |
| > 46 µM | NCCCC(=O)O [GABA] |
| > 46 µM | CC(C)(C)c1ccc(O)c(O)c1 [p-tert-Butylcatechol] |
| > 46 µM | Cc1cc(C(C)(C)C)c(O)c(C(C)(C)C)c1 [Butylated hydroxytoluene] |
| > 46 µM | N[S+](=O)([O-])Cc1noc2ccccc12 [Zonisamide] |
| > 46 µM | N=C(N/N=C/c1ccc(Cl)cc1)N/N=C/c1ccc(Cl)cc1 [ROBENIDINE HYDROCHLORIDE] |
| > 46 µM | O=C(c1ccccc1)c1ccc2n1CCC2C(=O)O (stereo unspecified) [Ketorolac tris salt] |
| > 46 µM | O=C(O)Cc1cc(I)c(Oc2ccc(O)c(I)c2)c(I)c1 [Tiratricol, 3,3',5-triiodothyroacetic acid] |
